One assay deals with MDM2 (Homo sapiens, UniProt Q00987). The assay is described as follows: Competitive fluorescence polarization assay for MDM2. It counts as binding. The note with it: competitive FP assay, MDM2; for IC50: read-out: IC50 (MDM2); for Ki: read-out: Ki (MDM2). On the technique in general: Polarisation of emitted light reports the rotation of a fluorescent probe.
The target of the next assay is T1, MDMX (Homo sapiens, UniProt O15151).
T1 sequence (O15151 1-125): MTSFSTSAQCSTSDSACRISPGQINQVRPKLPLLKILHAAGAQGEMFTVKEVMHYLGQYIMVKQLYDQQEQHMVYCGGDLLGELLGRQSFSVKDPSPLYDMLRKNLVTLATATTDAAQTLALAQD
The assay is described as follows: Competitive fluorescence polarization assay for MDMX. It counts as binding. The note with it: competitive FP assay; for IC50: read-out: IC50 (MDMX); for Ki: read-out: Ki (MDMX).

Where a SMILES comes first, the peptide text is derived from it. Bridges are numbered along the chain shown (N, C = ends). [ ]: non-standard residue; d: D form. R8 = C=CCCCCCC[C@@](C)(N)C(=O)O; Cba = N[C@@H](CC1CCC1)C(=O)O; S5 = C=CCCC[C@](C)(N)C(=O)O; Nle = CCCC[C@H](N)C(=O)O Some results are limits rather than exact numbers.

Chain of MDM2 (Q00987 1-125): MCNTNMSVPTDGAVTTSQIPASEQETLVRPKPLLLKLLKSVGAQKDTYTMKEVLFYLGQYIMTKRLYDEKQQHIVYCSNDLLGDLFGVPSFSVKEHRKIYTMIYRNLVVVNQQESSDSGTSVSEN
Protocol for MDM2: Dilute 1 mM (in 100% DMSO) of FAM labeled linear peptide with DMSO to 100 μM (dilution 1:10). Then, dilute from 100 μM to 10 μM with water (dilution 1:10) and then dilute with FP buffer from 10 μM to 40 nM (dilution 1:250). This is the working solution which will be a 10 nM concentration in well (dilution 1:4). […] Then, dilute from 5 mM to 500 μM with H2O (dilution 1:10) and then dilute with FP buffer from 500 μM to 20 μM (dilution 1:25).
Dilute 1 mM (in 100% DMSO) of FAM labeled linear peptide with DMSO to 100 μM (dilution 1:10). Then, dilute from 100 μM to 10 μM with water (dilution 1:10) and then dilute with FP buffer from 10 μM to 40 nM (dilution 1:250). This is the working solution which will be a 10 nM concentration in well (dilution 1:4). […] Dilute 10 mM (in 100% DMSO) with DMSO to 5 mM (dilution 1:2). Then, dilute from 5 mM to 500 μM with H2O (dilution 1:10) and then dilute with FP buffer from 500 μM to 20 μM (dilution 1:25). […] Transfer 10 μl of serial diluted unlabeled peptides to each well which is filled with 20 μl of 300 nM of protein. • 7. Add 10 μl of 10 nM (4×) of FAM labeled peptide into each well and incubate for 3 hr to read.

A word on the IC50: it is the concentration that gives 50% inhibition. Usually Ki stands for the dissociation constant of the complex between target and ligand, obtained from inhibition or displacement. As to `CC(=O)N[C@@H](CCC(=O)O)C(=O)N[C@H](C(=O)N[C@@H](Cc1ccccc1)C(=O)N[C@]1(C)CCCCCCC=CCCC[C@@](C)(C(=O)N[C@@H](CO)C(=O)N[C@@H](Cc2c[nH]c3ccccc23)C(=O)N[C@@H](C)C(N)=O)NC(=O)[C@H](CC(C)C)NC(=O)[C@H](CCC(N)=O)NC(=O)[C@H](C)NC(=O)[C@H](Cc2c[nH]c3ccccc23)NC(=O)[C@H](Cc2ccc(O)cc2)NC(=O)[C@H](CCCCN)NC1=O)[C@@H](C)O` [compound 129] (Ac-ETF[R8]KYWAQL[S5]SWA-NH2; staple 4-11), at MDM2, the half-maximal inhibitory concentration (IC50) was under 10 nM and the inhibition constant (Ki) is under 10 nM. In addition, at MDMX, the concentration for half-maximal inhibition (IC50) fell in the range of 100 to 1000 nM and the inhibitory constant (Ki) is 10 to 100 nM.
For `CC(=O)N[C@@H](CC(C)C)C(=O)N[C@H](C(=O)N[C@@H](Cc1ccccc1)C(=O)N[C@]1(C)CCCCCCC=CCCC[C@@](C)(C(=O)N[C@@H](CO)C(=O)N[C@@H](CO)C(=O)N[C@H](C)C(N)=O)NC(=O)[C@H](CC(C)C)NC(=O)[C@H](CCC(N)=O)NC(=O)[C@H](C)NC(=O)[C@H](Cc2c[nH]c3ccccc23)NC(=O)[C@H](Cc2ccc(O)cc2)NC(=O)[C@H](C(C)C)NC1=O)[C@@H](C)O` [compound 133] (Ac-LTF[R8]VYWAQL[S5]SS[dA]-NH2; staple 4-11), on MDM2, the 50% inhibitory concentration (IC50) is under 10 nM and the Ki was under 10 nM. For the same compound, on MDMX, the 50% inhibitory concentration (IC50) lay within 100 to 1000 nM and the Ki was 10 to 100 nM.
As for `CC(=O)N[C@@H](CCC(=O)O)C(=O)N[C@H](C(=O)N[C@@H](Cc1ccccc1)C(=O)N[C@]1(C)CCCCCCC=CCCC[C@@](C)(C(=O)N[C@@H](CO)C(=O)N[C@@H](CO)C(=O)N[C@H](C)C(N)=O)NC(=O)[C@H](CC(C)C)NC(=O)[C@H](CCC(N)=O)NC(=O)[C@H](C)NC(=O)[C@H](Cc2c[nH]c3ccccc23)NC(=O)[C@H](Cc2ccc(O)cc2)NC(=O)[C@H](C(C)C)NC1=O)[C@@H](C)O` [compound 134] (Ac-ETF[R8]VYWAQL[S5]SS[dA]-NH2; staple 4-11), on MDM2, the IC50 is under 10 nM and the Ki was under 10 nM. At MDMX, the IC50 lay in the range of 100 to 1000 nM and the inhibition constant Ki lay in the range of 10 to 100 nM.
Turning to `CC(=O)N[C@@H](CC(C)C)C(=O)N[C@H](C(=O)N[C@@H](Cc1ccccc1)C(=O)N[C@]1(C)CCCCCCC=CCCC[C@@](C)(C(=O)N[C@@H](CO)C(=O)N[C@@H](CC(N)=O)C(=O)N[C@H](C)C(N)=O)NC(=O)[C@H](CC(C)C)NC(=O)[C@H](CCC(N)=O)NC(=O)[C@H](C)NC(=O)[C@H](Cc2c[nH]c3ccccc23)NC(=O)[C@H](Cc2ccc(O)cc2)NC(=O)[C@H](C(C)C)NC1=O)[C@@H](C)O` [compound 135] (Ac-LTF[R8]VYWAQL[S5]SN[dA]-NH2; staple 4-11), at MDM2, the IC50 is under 10 nM and the Ki was under 10 nM. On MDMX, the half-maximal inhibitory concentration (IC50) lay in the range of 100 to 1000 nM and the inhibition constant (Ki) was 10 to 100 nM.
For `CC(=O)N[C@@H](CCC(=O)O)C(=O)N[C@H](C(=O)N[C@@H](Cc1ccccc1)C(=O)N[C@]1(C)CCCCCCC=CCCC[C@@](C)(C(=O)N[C@@H](CO)C(=O)N[C@@H](CC(N)=O)C(=O)N[C@H](C)C(N)=O)NC(=O)[C@H](CC(C)C)NC(=O)[C@H](CCC(N)=O)NC(=O)[C@H](C)NC(=O)[C@H](Cc2c[nH]c3ccccc23)NC(=O)[C@H](Cc2ccc(O)cc2)NC(=O)[C@H](C(C)C)NC1=O)[C@@H](C)O` [compound 136] (Ac-ETF[R8]VYWAQL[S5]SN[dA]-NH2; staple 4-11), on MDM2, the IC50 is under 10 nM and the Ki is under 10 nM. Also, on MDMX, the IC50 fell in the range of 100 to 1000 nM and the Ki lay in the range of 10 to 100 nM.
With `CC[C@H](C)[C@H](NC(=O)[C@H](C)NC(=O)[C@H](C)NC(=O)[C@]1(C)CCCC=CCCCCCC[C@@](C)(NC(=O)[C@H](Cc2ccccc2)NC(=O)[C@@H](NC(=O)[C@H](CC(C)C)NC(C)=O)[C@@H](C)O)C(=O)N[C@@H](C)C(=O)N[C@@H](CCC(=O)O)C(=O)N[C@@H](Cc2c[nH]c3ccccc23)C(=O)N[C@@H](C)C(=O)N[C@@H](CCC(N)=O)C(=O)N[C@@H](CC(C)C)C(=O)N1)C(=O)N[C@H](C)C(N)=O` [compound 180] (Ac-LTF[R8]AEWAQL[S5]AAI[dA]-NH2; staple 4-11), on MDM2, the half-inhibitory concentration (IC50) was in the range of 10 to 100 nM and the inhibition constant (Ki) is under 10 nM. Besides, on MDMX, the IC50 fell in the range of 100 to 1000 nM and the inhibition constant (Ki) is 10 to 100 nM.
Regarding `CC[C@H](C)[C@H](NC(C)=O)C(=O)N[C@H](C(=O)N[C@@H](Cc1ccccc1)C(=O)N[C@]1(C)CCCCCCC=CCCC[C@@](C)(C(=O)N[C@@H](C)C(=O)N[C@@H](CCC(=O)O)C(=O)N[C@@H](Cc2ccccc2)C(=O)N[C@@H](C)C(N)=O)NC(=O)[C@H](CC(C)C)NC(=O)[C@H](CCC(N)=O)NC(=O)[C@H](C)NC(=O)[C@H](Cc2c[nH]c3ccccc23)NC(=O)[C@H](Cc2c[nH]cn2)NC(=O)[C@H](Cc2ccccc2)NC1=O)[C@@H](C)O` [compound 186] (Ac-ITF[R8]FHWAQL[S5]AEFA-NH2; staple 4-11), at MDM2, the IC50 lay in the range of 10 to 100 nM and the Ki was under 10 nM. Besides, on MDMX, the IC50 was in the range of 100 to 1000 nM and the Ki fell in the range of 10 to 100 nM.
For `CC[C@H](C)[C@H](NC(C)=O)C(=O)N[C@H](C(=O)N[C@@H](Cc1ccccc1)C(=O)N[C@]1(C)CCCCCCC=CCCC[C@@](C)(C(=O)N[C@@H](C)C(=O)N[C@@H](Cc2c[nH]cn2)C(=O)N[C@@H](Cc2ccccc2)C(=O)N[C@@H](C)C(N)=O)NC(=O)[C@H](CC(C)C)NC(=O)[C@H](CCC(N)=O)NC(=O)[C@H](C(C)C)NC(=O)[C@H](Cc2c[nH]c3ccccc23)NC(=O)[C@H](Cc2ccc(O)cc2)NC(=O)[C@H](CCC(=O)O)NC1=O)[C@@H](C)O` [compound 192] (Ac-ITF[R8]EYWVQL[S5]AHFA-NH2; staple 4-11), at MDM2, the IC50 fell in the range of 10 to 100 nM and the Ki is under 10 nM. In addition, on MDMX, the IC50 lay within 100 to 1000 nM and the Ki lay in the range of 10 to 100 nM.
Consider `CC[C@H](C)[C@H](NC(=O)[C@H](Cc1c[nH]cn1)NC(=O)[C@H](C)NC(=O)[C@]1(C)CCCC=CCCCCCC[C@@](C)(NC(=O)[C@H](Cc2ccccc2)NC(=O)[C@@H](NC(=O)[C@H](CC(C)C)NC(C)=O)[C@@H](C)O)C(=O)N[C@@H](C)C(=O)N[C@@H](Cc2c[nH]cn2)C(=O)N[C@@H](Cc2c[nH]c3ccccc23)C(=O)N[C@@H](C)C(=O)N[C@@H](CCC(N)=O)C(=O)N[C@@H](CC(C)C)C(=O)N1)C(=O)N[C@H](C)C(N)=O` [compound 207] (Ac-LTF[R8]AHWAQL[S5]AHI[dA]-NH2; staple 4-11), for which, at MDM2, the half-inhibitory concentration (IC50) was under 10 nM and the Ki was under 10 nM. Further, at MDMX, the concentration for half-maximal inhibition (IC50) was in the range of 100 to 1000 nM and the Ki fell in the range of 10 to 100 nM.
Take `CCCC[C@H](NC(=O)[C@H](C)NC(=O)[C@H](C)NC(=O)[C@]1(C)CCCC=CCCCCCC[C@@](C)(NC(=O)[C@H](Cc2ccccc2)NC(=O)[C@@H](NC(=O)[C@H](CC(C)C)NC(C)=O)[C@@H](C)O)C(=O)N[C@@H](C)C(=O)N[C@@H](Cc2ccc(O)cc2)C(=O)N[C@@H](Cc2c[nH]c3ccccc23)C(=O)N[C@@H](C)C(=O)N[C@@H](CCC(N)=O)C(=O)N[C@@H](CC2CCC2)C(=O)N1)C(=O)N[C@@H](C)C(N)=O` [compound 236] (Ac-LTF[R8]AYWAQ[Cba][S5]AA[Nle]A-NH2; staple 4-11): at MDM2, the half-inhibitory concentration (IC50) fell in the range of 10 to 100 nM and the Ki is under 10 nM. Moreover, on MDMX, the IC50 fell in the range of 100 to 1000 nM and the Ki is 10 to 100 nM.
Consider `CCCC[C@H](NC(=O)[C@H](Cc1c[nH]c2ccccc12)NC(=O)[C@H](C)NC(=O)[C@]1(C)CCCC=CCCCCCC[C@@](C)(NC(=O)[C@H](Cc2ccccc2)NC(=O)[C@@H](NC(=O)[C@H](CC(C)C)NC(C)=O)[C@@H](C)O)C(=O)N[C@@H](C)C(=O)N[C@@H](Cc2ccc(O)cc2)C(=O)N[C@@H](Cc2c[nH]c3ccccc23)C(=O)N[C@@H](C)C(=O)N[C@@H](CCC(N)=O)C(=O)N[C@@H](CC2CCC2)C(=O)N1)C(=O)N[C@@H](C)C(N)=O` [compound 239] (Ac-LTF[R8]AYWAQ[Cba][S5]AW[Nle]A-NH2; staple 4-11), for which, on MDM2, the IC50 is 10 to 100 nM and the inhibitory constant (Ki) is 10 to 100 nM. Also, on MDMX, the concentration for half-maximal inhibition (IC50) lay in the range of 100 to 1000 nM and the Ki fell in the range of 10 to 100 nM.
For `CCCC[C@H](NC(=O)[C@H](Cc1c[nH]c2ccccc12)NC(=O)[C@H](C)NC(=O)[C@]1(C)CCCC=CCCCCCC[C@@](C)(NC(=O)[C@H](Cc2ccccc2)NC(=O)[C@@H](NC(=O)[C@H](CCC(=O)O)NC(C)=O)[C@@H](C)O)C(=O)N[C@@H](C)C(=O)N[C@@H](Cc2ccc(O)cc2)C(=O)N[C@@H](Cc2c[nH]c3ccccc23)C(=O)N[C@@H](C)C(=O)N[C@@H](CCC(N)=O)C(=O)N[C@@H](CC2CCC2)C(=O)N1)C(=O)N[C@@H](C)C(N)=O` [compound 240] (Ac-ETF[R8]AYWAQ[Cba][S5]AW[Nle]A-NH2; staple 4-11), on MDM2, the half-maximal inhibitory concentration (IC50) lay within 10 to 100 nM and the inhibitory constant (Ki) is under 10 nM. Also, at MDMX, the half-maximal inhibitory concentration (IC50) lay within 100 to 1000 nM and the Ki lay within 10 to 100 nM.
On to `CCCC[C@H](NC(=O)[C@H](Cc1c[nH]c2ccccc12)NC(=O)[C@H](C)NC(=O)[C@]1(C)CCCC=CCCCCCC[C@@](C)(NC(=O)[C@H](Cc2ccccc2)NC(=O)[C@@H](NC(=O)[C@H](CC(C)C)NC(C)=O)[C@@H](C)O)C(=O)N[C@@H](CCC(=O)O)C(=O)N[C@@H](Cc2ccc(O)cc2)C(=O)N[C@@H](Cc2c[nH]c3ccccc23)C(=O)N[C@@H](C)C(=O)N[C@@H](CCC(N)=O)C(=O)N[C@@H](CC2CCC2)C(=O)N1)C(=O)N[C@@H](C)C(N)=O` [compound 241] (Ac-LTF[R8]EYWAQ[Cba][S5]AW[Nle]A-NH2; staple 4-11), for which, at MDM2, the IC50 was 10 to 100 nM and the Ki was under 10 nM. Also, at MDMX, the half-maximal inhibitory concentration (IC50) was 100 to 1000 nM and the Ki was 10 to 100 nM.

The record behind these values is US8927500B2, “Peptidomimetic macrocycles” (Aileron Therapeutics, Inc., priority 2012, dated 2015).
